Data set [1] concerns ZR-75-1 cells. The experiment in a line: Transfection of ZR-75-1 cells, GFP expression by flow cytometry. Format: cell-based. The procedure: In order to test the RALA in vitro, small scale transfections were performed carried out. 5×10^4 cells were seeded onto each well of a 96 well plate and the cells incubated under with complete medium standard conditions for 48 hours. The medium was subsequently removed from the plates and 100 μl of transfection medium (Optimem Invitrogen, UK) was added to each well. Cells were incubated for 2 hours at 37° C. and 5% CO2 standard conditions. In the meanwhile complexes were made up using 1 μg of plasmid DNA with the RALA vector and added to the cells when the two hours had passed. 100 μl of the each N:P ratio were added to each well of the cells. Cells were then incubated for a further 4 hours under standard conditions and the medium with RPMI-1640 supplemented with +10% FCS. (FIG. 4, 31 (+Chloroquine), 32 (+Bafilomycin), 33 (+KALA NPs), 34 (+Lipofectamine), 35).
ZR-75-1 & PC-3 cells that were transfected with RALA/pEGFP-N1 complexes were trypsinised and washed twice with 2% formaldehyde in phosphate buffered saline. The expression of green fluorescent protein was measured by flow cytometry using FACS calibur system (BD Bioscience, UK). The data was analysed using the Flo-Jo software program and fluorescent intensity is reported at 4% gating. (FIG. 7b, 11, 31, 32, 33, 34, 35, 57 (+RAT/pEGFP-N1)).

Data set [2] can be described thus: Nanoparticle size and charge analysis (DLS, Laser Doppler Velocimetry, Malvern Zetasizer). The format is physicochemical. The procedure: In order to obtain particle size and charge distributions the mean hydrodynamic particle size measurements RALA complexes were performed using Dynamic Light Scattering (DLS). Dynamic Light Scattering is based upon the principle that when particles are illuminated with a laser, due to Brownian motion there will be scattering of the light. The intensity of the scattered light fluctuates as a result of this Brownian motion caused by bombardment of the particles by solvent molecules. A correlation curve reflecting the decay rate is generated based on fluctuations of the scattered light where a slower correlation decay rate represents a slower moving particle. Based on the Stokes-Einstein equation larger particles move more slowly and, thus, the correlation function can be used to determine the size distribution of the particles. dynamic light scattering (DLS) was used.
Surface charge measurements of the RALA nanoparticles were determined by Laser Doppler Velocimetry. The zeta potential of the particles was measured using disposable foltable zeta cuvettes. […]
The nanoparticles were made up at an appropriate range of N:P ratios with at least using 2 μg of DNA in each sample. Nanoparticles were analysed using either and analysis was completed on either the Zetasizer-HS3000 (Malvern Instruments) or the Zetasizer-Nano instrument with DTS software (Malvern Instruments, UK). […]

Data set [3] relates to C57/BL6 mice. The data set can be described thus: Immune response on repeated administration (ELISA, Greiss test on serum). Format: in vivo. The conditions noted are these: first week, compared with PEI only.

These results are taken from patent US9744244B2, “Amphipathic peptide” (The Queen's University of Belfast, priority 2012, dated 2017).

Where no end group is shown, it is not given here.

In the case of “WEARLARALARALARHLRACEA (22mer protein sequence (Table 2)) [Peptide 22mer, comparative peptide]”, the “ability to transfect cells” value in data set [1] was “unable to condense DNA into nanoparticles and transfect cells”. Moreover, in data set [2], the “ability to condense DNA into nanoparticles” value is “unable to condense DNA into nanoparticles”. In the case of WEARLARALARALARHLARALARALRACEA [RALA], the “initial TNFα response” value in data set [3] is reported as “significantly lower initial response of TNFα than the PEI only treated animals”.
